Experiment [1] addresses T1, Nonstructural protein 5A (Hepatitis C virus) (UniProt Q5L478).
T1 sequence (whole entry): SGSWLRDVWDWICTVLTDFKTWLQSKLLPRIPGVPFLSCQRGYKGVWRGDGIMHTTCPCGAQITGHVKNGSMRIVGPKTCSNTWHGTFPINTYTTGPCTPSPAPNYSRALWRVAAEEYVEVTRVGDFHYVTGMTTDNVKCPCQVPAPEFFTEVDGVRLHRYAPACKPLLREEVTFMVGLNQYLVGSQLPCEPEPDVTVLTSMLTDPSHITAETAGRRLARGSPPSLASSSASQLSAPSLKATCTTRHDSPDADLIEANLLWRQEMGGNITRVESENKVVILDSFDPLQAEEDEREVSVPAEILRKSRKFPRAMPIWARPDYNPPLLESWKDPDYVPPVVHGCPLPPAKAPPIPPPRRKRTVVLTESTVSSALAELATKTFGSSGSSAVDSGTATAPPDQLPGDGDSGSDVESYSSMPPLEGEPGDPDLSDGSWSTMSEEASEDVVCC
Nature of the experiment: Inhibition of wild type HCV genotype 2b NS5A assessed as reduction in viral RNA level by cell based real time PCR method. The note with it: Hepatitis C virus subtype 2b. In general terms: Quantitative PCR measures a nucleic acid by following its amplification.

In experiment [2] the test system is T2, Nonstructural protein 5A (Hepatitis C virus), Q5L478 [Y93H].
T2 sequence (whole entry): T1 sequence (whole entry) with Y93H
Nature of the experiment: Inhibition of HCV genotype 1a NS5A Y93H mutant assessed as reduction in viral RNA level by cell based real time PCR method. Particulars: Hepatitis C virus subtype 1a.

Experiment [3] deals with T1, Nonstructural protein 5A (Hepatitis C virus). Nature of the experiment: Inhibition of wild type HCV genotype 1a NS5A assessed as reduction in viral RNA level by cell based real time PCR method. The note with it: Hepatitis C virus subtype 1a.
For experiment [4], the system named is Nonstructural protein 5A (Hepatitis C virus), Q5L478 [UNDEFINED MUTATION]. Nature of the experiment: Inhibition of HCV genotype 1a NS5A L31V mutant assessed as reduction in viral RNA level by cell based real time PCR method. The note with it: Hepatitis C virus subtype 1a.

Molecules are shown by their SMILES. Changes are numbered by the printed parent chain. A value given as a limit tells only on which side of the number the result lay.

Results on 11 compounds are retold here after ChEMBL document CHEMBL4425153, “Matched and mixed cap derivatives in the tetracyclic indole class of HCV NS5A inhibitors” (Bioorg Med Chem Lett, 2016).

What is called EC90 is the concentration needed for an effect of 90%. In the case of `O=C([C@H]1CCCO1)N1CCC[C@H]1c1ncc(-c2ccc3c(c2)O[C@@H](c2ccccc2)n2c-3cc3cc(-c4cnc([C@@H]5CCCN5C(=O)[C@H]5CCCO5)[nH]4)ccc32)[nH]1`, the 90% effect concentration (EC90) in experiment [1] is above 100 nM; in experiment [2], above 100 nM; in experiment [3], 1 nM; in experiment [4], above 100 nM.
Regarding `CC[C@H](NC(=O)OC)C(=O)N1CCC[C@H]1c1ncc(-c2ccc3c(c2)O[C@@H](c2ccccc2)n2c-3cc3cc(-c4cnc([C@@H]5CCCN5C(=O)[C@H](CC)NC(=O)OC)[nH]4)ccc32)[nH]1`, the EC90 in experiment [1] is 65 nM; in experiment [2], above 100 nM; in experiment [3], 0.016 nM; in experiment [4], 1.6 nM.
`COC(=O)N[C@@H](CC1CCOCC1)C(=O)N1CCC[C@H]1c1ncc(-c2ccc3c(c2)O[C@@H](c2ccccc2)n2c-3cc3cc(-c4cnc([C@@H]5CCCN5C(=O)[C@H](CC5CCOCC5)NC(=O)OC)[nH]4)ccc32)[nH]1`: the EC90 in experiment [1] was 18 nM; in experiment [2], 40 nM; in experiment [3], 0.1 nM; in experiment [4], 0.77 nM.
On to `O=C([C@@H](c1ccccc1)N1CCCC1)N1CCC[C@H]1c1ncc(-c2ccc3c(c2)O[C@@H](c2ccccc2)n2c-3cc3cc(-c4cnc([C@@H]5CCCN5C(=O)[C@@H](c5ccccc5)N5CCCC5)[nH]4)ccc32)[nH]1`, for which the concentration for an effect of 90% (EC90) in experiment [1] was 13 nM; in experiment [2], above 100 nM; in experiment [3] it was 3.9 nM; in experiment [4], 3.9 nM.
Regarding `COC(=O)N[C@@H](C(=O)N1CCC[C@H]1c1ncc(-c2ccc3c(c2)O[C@@H](c2ccccc2)n2c-3cc3cc(-c4cnc([C@@H]5CCCN5C(=O)[C@H](NC(=O)OC)C5CCOCC5)[nH]4)ccc32)[nH]1)C1CCOCC1`, the EC90 is above 100 nM in experiment [1], above 100 nM in experiment [2], 8.6 nM in experiment [3] and above 100 nM in experiment [4].
Take `COC(=O)N[C@H](C(=O)N1CCC[C@H]1c1ncc(-c2ccc3c(c2)O[C@@H](c2ccccc2)n2c-3cc3cc(-c4cnc([C@@H]5CCCN5C(=O)C5(NC(=O)OC)CCCCC5)[nH]4)ccc32)[nH]1)C(C)C`: the EC90 in experiment [1] is above 100 nM; in experiment [2] it was above 100 nM; in experiment [3], 0.035 nM; in experiment [4], 14.7 nM.
`COCC[C@H](NC(=O)OC)C(=O)N1CCC[C@H]1c1ncc(-c2ccc3c(c2)O[C@@H](c2ccccc2)n2c-3cc3cc(-c4cnc([C@@H]5CCCN5C(=O)[C@H](CCOC)NC(=O)OC)[nH]4)ccc32)[nH]1`: the 90% effect concentration (EC90) turned out to be 91 nM in experiment [1], 46 nM in experiment [2], 0.061 nM in experiment [3] and 2.1 nM in experiment [4].
Take `CN(C)[C@@H](C(=O)N1CCC[C@H]1c1ncc(-c2ccc3c(c2)O[C@@H](c2ccccc2)n2c-3cc3cc(-c4cnc([C@@H]5CCCN5C(=O)[C@@H](c5ccc(F)cc5)N(C)C)[nH]4)ccc32)[nH]1)c1ccc(F)cc1`: the EC90 in experiment [1] was above 100 nM; in experiment [2], above 100 nM; in experiment [3] it was 0.98 nM; in experiment [4] it was above 100 nM.
In the case of `COC(=O)N[C@H](C(=O)N1CCC[C@H]1c1ncc(-c2ccc3c(c2)O[C@@H](c2ccccc2)n2c-3cc3cc(-c4cnc([C@@H]5CCCN5C(=O)[C@@H](NC(=O)OC)[C@@H](C)OC)[nH]4)ccc32)[nH]1)C(C)C`, the EC90 turned out to be 35 nM in experiment [1], 54 nM in experiment [2] and 0.039 nM in experiment [3].
As for `CCN(CC)[C@@H](C(=O)N1CCC[C@H]1c1ncc(-c2ccc3c(c2)cc2n3[C@H](c3ccccc3)Oc3cc(-c4cnc([C@@H]5CCCN5C(=O)[C@@H](NC(=O)OC)C(C)C)[nH]4)ccc3-2)[nH]1)c1ccccc1`, the 90% effect concentration (EC90) came to 4 nM in experiment [1], 44 nM in experiment [2] and 0.045 nM in experiment [3].
For the compound `COC(=O)N[C@H](C(=O)N1CCC[C@H]1c1ncc(-c2ccc3c(c2)O[C@@H](c2ccccc2)n2c-3cc3cc(-c4cnc([C@@H]5CCCN5C(=O)[C@@H](NC(=O)OC)[C@@H](C)OC)[nH]4)ccc32)[nH]1)[C@@H](C)OC`, the EC90 is 17 nM in experiment [1], above 100 nM in experiment [2] and 0.019 nM in experiment [3].
